Laboratory results taken from PubChem BioAssay (NCI).
Values joined by “and” are separate entries in the source; they are usually repeats but may differ in a detail not shown here. Equal values may be shown once.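 Each compound was tested at five concentrations against cells in 96-well plates for 48 hours. The concentration for 50% growth inhibition is given as GI50. TGI denotes the concentration required for complete inhibition of growth.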

Assays:
Assay in all cases: NCI tumour cell line growth inhibition, 48 h
SK-MEL-5 melanoma = tested on: SK-MEL-5 melanoma
HT29 colon = tested on: HT29 colon
SNB-75 CNS = tested on: SNB-75 CNS
SN12C renal = tested on: SN12C renal
MALME-3M melanoma = tested on: MALME-3M melanoma
IGROV1 ovarian = tested on: IGROV1 ovarian
SW-620 colon = tested on: SW-620 colon
SF-539 CNS = tested on: SF-539 CNS
HOP-62 NSCLC = tested on: HOP-62 NSCLC
OVCAR-4 ovarian = tested on: OVCAR-4 ovarian

SMILES	GI50 (SK-MEL-5 melanoma)	TGI (SK-MEL-5 melanoma)	GI50 (HT29 colon)	TGI (HT29 colon)	GI50 (SNB-75 CNS)	TGI (SNB-75 CNS)	GI50 (SN12C renal)	TGI (SN12C renal)	GI50 (MALME-3M melanoma)	TGI (MALME-3M melanoma)	GI50 (IGROV1 ovarian)	TGI (IGROV1 ovarian)	GI50 (SW-620 colon)	TGI (SW-620 colon)	GI50 (SF-539 CNS)	TGI (SF-539 CNS)	GI50 (HOP-62 NSCLC)	TGI (HOP-62 NSCLC)	GI50 (OVCAR-4 ovarian)	TGI (OVCAR-4 ovarian)
O=C(NC(=S)Nc1cc(Cl)ccc1O)c1cccc(Br)c1	6.21 µM	> 100 µM	69.3 µM	> 100 µM	11.8 µM	75.8 µM	12.5 µM	> 100 µM	9.33 µM	55.4 µM	9.67 µM	> 100 µM	4.77 µM	> 100 µM	7.58 µM	35.8 µM	7.46 µM	> 100 µM	4.7 µM	> 100 µM
CC1(C)C(=O)/C(=C\c2cccnc2)C[C@]2(C)[C@H]3CC[C@@H]4[C@@H](C(=O)/C=C/c5ccncc5)CC[C@@]4(C)[C@]3(C)CC[C@@H]12	1.67 µM	3.05 µM	2.41 µM	8.64 µM	–	–	2.47 µM	7.85 µM	1.78 µM	3.43 µM	2.03 µM	4.05 µM	1.81 µM	4.59 µM	1.76 µM	3.25 µM	1.9 µM	3.94 µM	2.55 µM	9.89 µM
O=C(O)Cn1cc([N+](=O)[O-])c(=O)c2ccccc21	–	> 100 µM	–	> 100 µM	–	> 100 µM	–	> 100 µM	–	> 100 µM	–	> 100 µM	–	> 100 µM	–	> 100 µM	–	> 100 µM	–	–
Cc1cccc2c(O)cc(=O)oc12	–	–	–	> 100 µM	–	> 100 µM	–	> 100 µM	–	> 100 µM	–	> 100 µM	–	> 100 µM	–	> 100 µM	–	> 100 µM	–	> 100 µM
CN(C)CC/C(=N\Nc1ccc(Cl)cc1Cl)c1ccccc1	–	27.9 µM	–	28.9 µM	–	20.9 µM	–	25.1 µM	–	49.7 µM	–	22.8 µM	–	29.5 µM	–	35 µM	–	30.3 µM	–	–
CNCCN=c1ccc2c3c1c(O)c1c(O)ccc(=O)c1c3[nH]n2CCNCCO	0.0847 µM and 0.139 µM	0.962 µM and 2.06 µM	0.587 µM	3.71 µM and 9.04 µM	0.0294 µM and 0.0772 µM	0.387 µM and 0.149 µM	0.0859 µM	2.41 µM and 2.39 µM	0.696 µM and 0.511 µM	–	1.25 µM	11.2 µM and 12.9 µM	–	–	0.0576 µM	1.32 µM	–	–	0.861 µM and 0.923 µM	3.26 µM and 5.54 µM
CS(=O)(=O)N(c1cc(-c2ccc3ncnc(Nc4cccc(Cl)c4)c3c2)cnc1Cl)S(C)(=O)=O	0.306 µM	1.41 µM	0.364 µM	58.8 µM	0.0406 µM	0.641 µM	0.386 µM	17 µM	–	–	0.0951 µM	0.528 µM	0.742 µM	13.4 µM	0.533 µM	4.33 µM	0.443 µM	12.8 µM	1.04 µM	10.4 µM
CC1(C)CC(N(C(=O)/C=C/c2ccc([N+](=O)[O-])o2)C2CCCCC2)CC(C)(C)N1	–	21.8 µM	–	15.4 µM	–	22.3 µM	–	18.9 µM	–	–	–	29.1 µM	–	6.01 µM	–	21.8 µM	–	34.5 µM	–	22.2 µM
